The results in this text go back to patent US11590134B2, “Aminopyrimidine amide autophagy inhibitors and methods of use thereof” (Deciphera Pharmaceuticals, LLC, priority 2019, dated 2023).

pIC50: −log10 of the molar value.

The target of one test is T1, ULK2 kinase (Homo sapiens, UniProt Q8IYT8).
T1 construct: purchased Eurofins 14-772
Description: Biochemical assay for ULK2 (coupled pyruvate kinase/lactate dehydrogenase assay). The conditions noted are these: 9.7 nM ULK2 (residues 1-306), myelin basic protein substrate, 1 mM ATP; read-out: ULK2.2. Here is the method:
Activity of ULK2 kinase was determined spectroscopically using a coupled pyruvate kinase/lactate dehydrogenase assay that continuously monitors the ATP hydrolysis-dependent oxidation of NADH (e.g., Schindler et al. Science (2000) 289: 1938-1942). Assays were conducted in 384-well plates (100 uL final volume) using 9.7 nM ULK2 (Eurofins CAT #14-772), 0.25 mg/mL myelin basic protein, 1.5 units pyruvate kinase, 2.1 units lactate dehydrogenase, 1 mM phosphoenol pyruvate, 0.28 mM NADH and 1 mM ATP in assay buffer (100 mM Tris, pH 7.5, 15 mM MgCl2, 0.5 mM DTT, 0.1% octyl-glucoside, 0.002% (w/v) BSA, and 0.002% Triton X-100). Inhibition of ULK2 was measured by adding serial diluted test compound (final assay concentration of 1% DMSO). A decrease in absorption at 340 nm was monitored continuously for 6 hours at 30° C. on a multi-mode microplate reader (BioTek). The reaction rate was calculated using the 2-3 h time frame. The reaction rate at each concentration of compound was converted to percent inhibition using controls (i.e. reaction with no test compound and reaction with a known inhibitor) and IC50 values were calculated by fitting a four-parameter sigmoidal curve to the data using Prism (GraphPad software).

Test [1] relates to ULK kinase substrate ATG13 (phospho-Serine 318 ATG13) in A549 cells. Description: pATG13 ELISA in mutant KRas A549 cells in combination with trametinib. It counts as cell-based. The conditions noted are these: A549 (KRAS mutant) human lung cancer cells, with 250 nM trametinib, overnight. How it is done: (§1) A549 (KRAS mutant) human lung cancer cells (6,000 cells/well) were added to a 384-well tissue-culture treated plate in 50 μL of pre-warmed DMEM medium supplemented with 10% characterized fetal bovine serum (Invitrogen, Carlsbad, Calif.), 100 units/mL penicillin G, and 100 μg/mL streptomycin and allowed to grow overnight at 37° C., 5% CO2, and 95% humidity. The following day, 10 μL of media containing trametinib or DMSO as a control was added to wells. The final concentration of trametinib in wells was 250 nM. A dose response of a test compound (0.6 μL per well) was added. DMSO (0.6 μL) was added to control wells. The plate was briefly shaken to mix wells and then incubated at 37° C. overnight. The next day, the media was aspirated and cells were washed with Dulbecco's Phosphate Buffered Saline (Gibco). Cells were lysed using MPER lysis buffer (Pierce, Rockford, Ill.) containing Halt Phosphatase and Protease Inhibitors (Pierce, Rockford, Ill.) and Phosphatase inhibitor cocktail 2 (Sigma, St. Louis, Mo.) at 4° C. for 10 minutes with shaking.
(§2) Cellular levels of phospho-Serine 318 ATG13 (pATG13) were measured via an ELISA method. Total ATG13 Antibody (Cell Signaling Cat #13273) was used to coat the wells. The plate was incubated at 4° C. overnight and washed with ELISA wash buffer (Biolegend Cat #421601). The wells were then blocked with assay diluent (Biolegend Cat #421203) for 1 hour at room temperature. Plate wells were washed with ELISA wash buffer. Cell lysate was added to wells and incubated at room temperature for 2 hours. Plate wells were washed with ELISA wash buffer. Biotinylated pS318-ATG13 antibody (Rockland Immunochemicals Cat #600-401-C49) was diluted in assay diluent and added to each well and incubated at room temperature for 1 hour. Plate wells were washed with ELISA wash buffer. Streptavidin linked to horseradish peroxidase (Thermo Fisher Cat #21140) was diluted in assay diluent and added to each well and incubated at room temperature for 1 hour. Plate wells were washed with ELISA wash buffer. High sensitivity TMB substrate (Biolegend Cat #421101) was added to each well and incubated at room temperature for 20 minutes. The reaction was stopped with 2N Sulfuric Acid. The plate was analyzed at on a plate reader measuring absorbance at 450 nm and 540 nm (background). Signal was calculated by first subtracting the background absorbance at 540 nm from the absorbance at 450 nm for each well. Next, the background corrected absorbance at 450 nm from blank wells was subtracted from test wells. Data was compared to control wells to determine % ATG13 phosphorylation. GraphPad Prism was used to calculate IC50 values.

The test system of test [2] is ULK kinase substrate ATG13 (phospho-Serine 318 ATG13) in MiaPaCa-2 cells. Description: pATG13 ELISA in mutant KRas MiaPaCa-2 cells in combination with trametinib. Format: cell-based. The conditions noted are these: MiaPaCa-2 human pancreatic cancer cells, with 250 nM trametinib, overnight. How it is done: as §1, with “MiaPaCa-2” for “A549 (KRAS mutant)”, “pancreatic” for “lung”, “(10000” for “(6,000”, “G,” for “G, and”, “streptomycin, and 2.5% Horse Serum” for “streptomycin”
as §2
Background: In an ELISA, binding on a coated surface is turned into a signal by an enzyme label.

The next test addresses T2, LRRK2 kinase (Homo sapiens, UniProt Q5S007).
T2 construct: (residues 970-2528; ID NO; 4); purchased Thermo Fisher
Description: Biochemical assay for LRRK2 (coupled pyruvate kinase/lactate dehydrogenase assay). The settings on record: 26.4 nM LRRK2 (residues 970-2528), peptide substrate, 1 mM ATP. How it is done: Activity of LRRK2 kinase was determined spectroscopically using a coupled pyruvate kinase/lactate dehydrogenase assay that continuously monitors the ATP hydrolysis-dependent oxidation of NADH (e.g., Schindler et al. Science (2000) 289: 1938-1942). Assays were conducted in 384-well plates (100 uL final volume) using 26.4 nM LRRK2 (Thermo Fisher), 0.1 mM peptide substrate (RLGRDKYKTLRQIRQ (SEQ ID NO: 6)), 1.5 units pyruvate kinase, 2.1 units lactate dehydrogenase, 1 mM phosphoenol pyruvate, 0.28 mM NADH and 1 mM ATP in assay buffer (100 mM Tris, pH 7.5, 15 mM MgCl2, 0.5 mM DTT, 0.004% (w/v) BSA, and 0.004% Triton X-100). Inhibition of LRRK2 was measured by adding serial diluted test compound (final assay concentration of 1% DMSO). A decrease in absorption at 340 nm was monitored continuously for 6 hours at 30° C. on a multi-mode microplate reader (BioTek). The reaction rate was calculated using the 2-3 h time frame. The reaction rate at each concentration of compound was converted to percent inhibition using controls (i.e. reaction with no test compound and reaction with a known inhibitor) and IC50 values were calculated using software routines in Prism (GraphPad software).

T2 sequence (Q5S007 with tags, fused parts or gaps): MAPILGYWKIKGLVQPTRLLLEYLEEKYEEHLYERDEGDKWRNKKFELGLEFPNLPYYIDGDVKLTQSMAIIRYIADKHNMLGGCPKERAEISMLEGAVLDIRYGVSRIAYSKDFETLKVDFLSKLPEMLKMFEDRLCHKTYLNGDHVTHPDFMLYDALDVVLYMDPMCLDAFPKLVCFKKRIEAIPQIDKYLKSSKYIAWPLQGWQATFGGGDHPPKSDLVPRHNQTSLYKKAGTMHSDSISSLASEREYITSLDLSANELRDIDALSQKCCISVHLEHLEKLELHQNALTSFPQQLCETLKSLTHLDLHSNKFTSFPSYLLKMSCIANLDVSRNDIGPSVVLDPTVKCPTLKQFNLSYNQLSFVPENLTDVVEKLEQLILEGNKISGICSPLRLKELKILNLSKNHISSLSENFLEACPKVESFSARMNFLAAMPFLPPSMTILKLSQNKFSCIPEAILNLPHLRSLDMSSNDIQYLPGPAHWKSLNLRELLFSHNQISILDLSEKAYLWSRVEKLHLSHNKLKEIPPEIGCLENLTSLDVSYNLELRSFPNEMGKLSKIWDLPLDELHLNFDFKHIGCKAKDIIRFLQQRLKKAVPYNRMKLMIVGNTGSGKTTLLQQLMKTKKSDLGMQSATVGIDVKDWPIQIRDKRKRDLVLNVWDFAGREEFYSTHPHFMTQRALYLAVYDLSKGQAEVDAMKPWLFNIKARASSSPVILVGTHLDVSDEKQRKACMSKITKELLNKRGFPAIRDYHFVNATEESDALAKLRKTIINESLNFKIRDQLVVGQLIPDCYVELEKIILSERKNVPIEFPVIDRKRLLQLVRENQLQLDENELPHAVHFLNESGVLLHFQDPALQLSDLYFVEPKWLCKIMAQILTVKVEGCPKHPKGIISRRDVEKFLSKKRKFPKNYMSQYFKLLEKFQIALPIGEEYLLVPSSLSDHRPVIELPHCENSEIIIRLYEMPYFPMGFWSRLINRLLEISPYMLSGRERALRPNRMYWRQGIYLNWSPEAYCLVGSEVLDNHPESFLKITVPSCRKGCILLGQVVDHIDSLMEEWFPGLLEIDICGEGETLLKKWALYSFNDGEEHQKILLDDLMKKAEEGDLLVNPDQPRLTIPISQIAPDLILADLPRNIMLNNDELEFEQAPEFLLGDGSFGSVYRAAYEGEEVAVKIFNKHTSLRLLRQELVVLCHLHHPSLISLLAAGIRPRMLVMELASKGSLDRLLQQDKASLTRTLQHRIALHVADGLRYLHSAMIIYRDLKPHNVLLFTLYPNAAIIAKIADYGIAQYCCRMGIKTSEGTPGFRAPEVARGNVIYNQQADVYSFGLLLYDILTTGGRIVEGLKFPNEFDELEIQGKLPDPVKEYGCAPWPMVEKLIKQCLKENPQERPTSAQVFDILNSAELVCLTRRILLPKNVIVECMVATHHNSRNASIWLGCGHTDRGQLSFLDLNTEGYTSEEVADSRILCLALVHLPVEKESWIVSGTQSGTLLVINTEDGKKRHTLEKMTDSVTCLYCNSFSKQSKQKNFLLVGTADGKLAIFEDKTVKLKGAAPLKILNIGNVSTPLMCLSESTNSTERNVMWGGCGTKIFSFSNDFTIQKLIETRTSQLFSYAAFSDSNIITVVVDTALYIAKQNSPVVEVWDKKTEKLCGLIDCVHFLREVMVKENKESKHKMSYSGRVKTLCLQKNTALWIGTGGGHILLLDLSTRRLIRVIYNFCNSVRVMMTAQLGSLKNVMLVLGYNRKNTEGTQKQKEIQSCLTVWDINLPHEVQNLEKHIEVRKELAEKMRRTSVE
T1 sequence (Q8IYT8 with tags, fused parts or gaps): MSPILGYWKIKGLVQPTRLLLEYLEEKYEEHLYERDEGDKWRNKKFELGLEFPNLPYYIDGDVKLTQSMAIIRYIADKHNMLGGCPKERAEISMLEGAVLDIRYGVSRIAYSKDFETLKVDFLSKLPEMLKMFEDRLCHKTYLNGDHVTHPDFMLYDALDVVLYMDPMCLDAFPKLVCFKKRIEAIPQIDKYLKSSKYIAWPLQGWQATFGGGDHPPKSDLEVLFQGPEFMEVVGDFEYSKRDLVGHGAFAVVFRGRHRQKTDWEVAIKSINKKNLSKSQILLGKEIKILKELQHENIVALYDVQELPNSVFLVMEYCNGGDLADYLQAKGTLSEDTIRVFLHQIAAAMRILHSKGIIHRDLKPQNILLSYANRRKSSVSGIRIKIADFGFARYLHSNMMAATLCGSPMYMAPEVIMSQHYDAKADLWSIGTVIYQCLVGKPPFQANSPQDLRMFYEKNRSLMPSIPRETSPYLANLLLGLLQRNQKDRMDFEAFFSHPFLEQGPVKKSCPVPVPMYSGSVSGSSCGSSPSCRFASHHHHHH

Regarding `CC(C)c1cc(N2CCN(C)CC2)ccc1Nc1ncc(C(F)(F)F)c(NCCCNC(=O)C2CCC2)n1` [Example 3], the pIC50 at ULK2 kinase is 7.00 to 7.60; in test [1], 6.52 to 7.00; in test [2] it was 7.00 to 8.00; at LRRK2 kinase it was 7.00 to 9.00.

As to `COc1cc(N2CCN(C)CC2)ccc1Nc1ncc(C(F)(F)F)c(NCCCNC(=O)C2CCC2)n1` [Example 4], the pIC50 is 7.00 to 7.60 on ULK2 kinase, 6.52 to 7.00 in test [1], 6.52 to 7.00 in test [2] and 7.00 to 9.00 against LRRK2 kinase.

Consider `CC(C)c1cc(N2CCN(C)CC2)ccc1Nc1ncc(Br)c(NCCCNC(=O)C2CCC2)n1` [Example 8], for which the pIC50 was 6.30 to 7.00 on ULK2 kinase, 6.52 to 7.00 in test [1], 6.52 to 7.00 in test [2] and 4.70 to 6.22 at LRRK2 kinase.

Turning to `Cc1cc(N2CCN(C)CC2)ccc1Nc1ncc(C(F)(F)F)c(NCCCNC(=O)C(C)(C)C)n1` [Example 12], the pIC50 was 6.30 to 7.00 at ULK2 kinase, 6.22 to 6.52 in test [1], 6.52 to 7.00 in test [2] and 6.52 to 7.00 on LRRK2 kinase.

Take `CN1CCN(c2ccc(Nc3ncc(C(F)(F)F)c(NCCCNC(=O)C4CCC4)n3)c(C3CC3)c2)CC1` [Example 14]: the pIC50 is 7.60 to 9.00 on ULK2 kinase, 7.00 to 8.00 in test [1], 7.00 to 8.00 in test [2] and 6.52 to 7.00 against LRRK2 kinase.
